What was measured:
[1] = Real-time measurement of CCl4 in combined exhaled breath of rats after a single intravenous injection (TAGA tandem mass spectrometer); assay type: in vivo, male Fischer 344 rat
From the text: Male, Fischer 344 rats, weighing 225-275 g, were purchased either with, or without, indwelling jugular vein cannulas from Charles River, Inc., Raleigh, N.C. Animals were housed singularly in solid-bottom cages with hardwood chips, and were acclimated on a 12-hr light/dark cycle prior to use. Rodent chow (NIH-07) and water were provided ad libitum throughout the acclimation period. Cannulas were maintained by periodic flushing with heparinized saline.
In three different experiments, either two or four animals were placed in nose-only restraint tubes (C. H. Technologies, Westwood, N.J.) with access slots that allow the cannulas to be exteriorized from the animal. Each animal restrainer was connected via a nose port to the rat manifold. The exhaled breath from the rat exited the nose port and was driven into a common mixing chamber by a continuous flow of supplied breathing air. Samples for analysis by the mass spectrometer were continually drawn from the contents of the mixing chamber. Rats placed in restraint tubes are connected to the manifold. The exhaled breath from each animal is passed into a common heated mixing chamber, where the mass spectrometer draws a sample via a drying tube.
Each animal received a single intravenous injection of CCl4 in isotonic saline, either through the Jugular vein cannula, or via the tail vein. In the first experiment, two animals were utilized, each receiving a dose of 0.6 mg/kg body weight (BW) (250 μl volume) through the jugular vein cannula. Cannulas were flushed with saline immediately following injection. The second and third experiments utilized 4 animals each, with each animal receiving a dose of 1.5 mg/kg BW (1 ml volume) through the tail vein. In all cases, the length of time of injection was approximately 1 minute. The combined exhaled breath from the exposed animals was measured continuously to determine the concentration of CCl4 exhaled. The resulting concentration data were adjusted to account for dilution by the flow of supplied breathing air and divided by the number of rats to allow expression as ng CCl4 /l air per rat.
The expired breath from the rats was monitored by interfacing the rats to a tandem mass spectrometer. The manifold was a modification of a human breath interface patented by Kenny and Kelly (1991) U.S. Pat. No. 5,042,501 herein incorporated by reference. This device can accommodate up to six rats connected by the nose-only restraint tubes mentioned above. Breathing air (1000 ml/min) is constantly supplied to the rats through the center tube (175 ml volume) of the manifold at a rate greater than the combined ventilation rate of the animals on the system, and can be adjusted for the number of rats being monitored. Re-breathing of the exhaled air was considered to be negligible. The exhaled breath from each rat flows into a common heated mixing chamber (300 ml volume) from which the mass spectrometer continuously draws its sample. The excess exhaled air is vented from the mixing chamber with negligible flow restriction via a large bore hole exit tube. Intensity data from the mass spectrometer was converted to concentration (ppb) through the use of external standards and a calibration curve for carbon tetrachloride. A new calibration curve was generated each day of experimentation.
During these experiments, the expired breath of the rats was monitored in real-time using a Sciex Trace Atmospheric Gas Analyzer (TAGA) 6000E tandem mass spectrometer (Sciex, Thornhill, Ontario, Canada) equipped with a low-pressure chemical ionization source (LPCI). The TAGA combines sampling and analysis into one rapid operation, while maintaining a very high level of sensitivity and selectivity (Dawson et al. 1982a; 1982b). The TAGA consists of a LPCI source and two mass filters in series, separated by a gas-collision region. Organic molecules in the sampled air stream are ionized directly at approximately 1 torr by the chemical reactions generated about a Townsend discharge electrode. […]

[2] = cited from earlier work
[3] = Paustenbach et al., 1988, cited from earlier work
[4] = 0.6 mg/kg BW, jugular vein cannula, two rats, FIG. 3a

Q: What does the source list for ClC(Cl)(Cl)Cl [CCl4, carbon tetrachloride]?
A: first pass elimination through the lung [1, 4]: extremely rapid; levels available for subsequent distribution into the entire blood volume [1, 4]: very low levels; fraction of CCl4 held up in the circulating blood supply ([1]; 1.5 mg/kg BW, tail vein, four rats, FIG. 3b, compared with jugular vein): larger fraction; elimination through the lung (exhalation profile) ([1]; 1.5 mg/kg BW, tail vein, four rats, FIG. 3b, repeat gave same pattern): initial sharp peak; time for which the decay of the CCl4 can be followed after the injection before returning to baseline ([1]; FIGS. 3a and 3b, single i.v. injection): 30 to 35 min; Tmax ([1]; rat, exhaled breath, iv, single i.v. injection, 0.6 mg/kg jugular vein or 1.5 mg/kg tail vein, consistent with calculated sample-introduction delay (28.5 seconds), read-out: peak concentration of CCl4 in exhaled breath occurred in (time from the end of the injection) (converted)): ~30 s; acetone in exhaled breath (biomarker of CCl4-induced lipid peroxidation) ([1]; single i.v. injection of CCl4): not detectable; Partition coefficient Blood: Air ([2]; Gargas et al., 1986b): 4.52; Partition coefficient Liver: Blood ([2]; Gargas et al., 1986b): 3.14; Partition coefficient Slowly perfused: Blood ([2]; Gargas et al., 1986b): 2.0; Partition coefficient Richly perfused: Blood ([2]; Set equivalent to partition coefficient for liver: blood): 3.14; Vmaxc (Metabolism) ([3]; body weight 250 g): 13.8 μg CCl4 /min per kg; Km (Metabolism) [3]: 0.25 µg/mL

Reference: patent US5645072A, “Real time chemical exposure and risk monitor” (priority 1995, dated 1997)
